For test [1], the target named is recombinant human Bcl-2-G101V protein (Homo sapiens (Human), UniProt P10415, G101V). The test is described as follows: Bcl-2-G101V TR-FRET Assay. Type of test: binding. Particulars: Bcl-2 G101V mutant, TR-FRET; read-out: Biochemical assay (IC50, nM) Bcl-2 G101V. In short, it runs like this: (§1)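 Measures how compounds block Bcl-2-G101V engaging its ligand, by TR-FRET with 337 nm excitation and a 490/520 nm emission ratio; dose-response data give IC50 via a four-parameter logistic model.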

Test [2] concerns recombinant human Bcl-2-G101V protein. The test is described as follows: Bcl-2-G101V TR-FRET Assay. Particulars: ratio of biochemical IC50 Bcl-2 G101V / Bcl-2 WT. Type of test: binding. A digest of the protocol: as §1
Test [3] relates to RS4;11 (BCL-2 dependent acute lymphoblastic leukemia cell line). The test is described as follows: RS4;11 Cell Proliferation Assay. The test is classed as cell-based. The following applies: Homo sapiens, RS4-11, RS4;11 cells, read-out: Cellular proliferation assay (IC50, nM) RS4. A digest of the protocol:
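Viability measured via CellTiter-Glo luminescence after a 48 h, 37 °C exposure to compounds (10 points, highest 1 μM). Seeding was 50,000 RS4;11 cells per well in 10% FBS RPMI-1640; IC50 given as mean.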

For test [4], the system named is BCL-2 G101V knock-in cell line H96 (derive from RS4;11). The test is described as follows: Bcl 2-G101V Knock-In RS4;11 Cell Proliferation Assay. The test is classed as cell-based. The following applies: Homo sapiens, RS4;11 Bcl-2 G101V knock-in clone H96, 48 hrs, CellTiter-GLO, read-out: Cellular proliferation assay (IC50, nM) RS4. A digest of the protocol: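 CellTiter-Glo luminescence after 48 h, 37 °C compound treatment (10 concentrations, maximum 1 μM or 10 μM) gave mean IC50 values. Cells were 50,000 per well of H96, a BCL2-G101V knock-in single clone derived from RS4;11 by Cas9 editing.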

Test [5] has as its target Recombinant human Bcl-2 protein (Homo sapiens (Human), UniProt P10415). As to the kind of experiment: Bcl-2 TR-FRET Assay. Type of test: binding. In short, it runs like this:
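In pH 7.5 phosphate buffer containing NaCl, EDTA, Tween-20 and BSA, 0.05 nM Bcl-2 saw serially diluted compound for 0.5 h before 0.5 nM FITC-Bak peptide was added. Signal ratio at 520/490 nm after 1 h yielded IC50.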
(TR-FRET usually uses a lanthanide donor and a delayed reading to cut background.)

Test [6] has as its target recombinant human Bcl-2 D103Y protein (Homo sapiens (Human), UniProt P10415, D103Y). The test is described as follows: Bcl-2-D103Y Biochemical Assay (TR-FRET). Type of test: binding. Particulars: for IC50: TR-FRET, FITC labeled Bak peptide; for ratio of Bcl-2 D103Y/Bcl-2 wt, compared with F91b in WO2019210828: comparison in words; for Ratio of Bcl-2 D103Y/Bcl-2 WT: ratio of IC50. In short, it runs like this: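 Compounds titrated against the Bcl-2 D103Y–ligand interaction; inhibition derived from the TR-FRET emission ratio 490 nm/520 nm after 337 nm excitation. Four-parameter logistic fitting gave IC50.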

The mark [7] stands for this setting: Bcl-2 wild type, TR-FRET, read-out: Biochemical assay (IC50, nM) Bcl-2 WT.
The mark [8] stands for this setting: wild type Bcl-2, unit inferred, read-out: Bcl-2 WT.

Read-outs that look alike come from different tables or passages of the source.

With `CC(C)c1ccccc1C1CN(Cc2ccc3sccc3c2)CCN1C1CC2(CCN(c3ccc(C(=O)NS(=O)(=O)c4ccc(NC[C@H]5CC[C@](C)(O)CC5)c([N+](=O)[O-])c4)c(Oc4cnc5[nH]ccc5c4)c3)CC2)C1` (some centres unmarked) [Example 58, 2-((1H-pyrrolo[2,3-b]pyridin-5-yl)oxy)-4-(2-(4-(benzo[b]thiophen-5-ylmethyl)-2-(2-isopropylphenyl)piperazin-1-yl)-7-azaspiro[3.5]nonan-7-yl)-N-((4-((((1r,4r)-4-hydroxy-4-methylcyclohexyl)methyl)amino)-3-nitrophenyl)sulfonyl)benzamide], the IC50 is 2 nM in test [1]; 0.74 nM in test [3]; 7.6 nM in test [4]; 0.62 nM in test [5] (setting [7]); 0.62 nM in test [5] (setting [8]); 1.8 nM in test [6]. Besides, the “Ratio of Bcl-2 G101V/WT” value in test [2] is on record as 3.2. Also, the “ratio of Bcl-2 D103Y/Bcl-2 wt, compared with F91b in WO2019210828” value in test [6] was “significantly lower”. In test [6], the “Ratio of Bcl-2 D103Y/Bcl-2 WT” value is on record as 2.9.

Regarding `CC(C)c1ccccc1C1CN(Cc2cccc3sccc23)CCN1C1CC2(CCN(c3ccc(C(=O)NS(=O)(=O)c4ccc(NC[C@H]5CC[C@](C)(O)CC5)c([N+](=O)[O-])c4)c(Oc4cnc5[nH]ccc5c4)c3)CC2)C1` (some centres unmarked) [Example 59, 2-((1H-pyrrolo[2,3-b]pyridin-5-yl)oxy)-4-(2-(4-(benzo[b]thiophen-4-ylmethyl)-2-(2-isopropylphenyl)piperazin-1-yl)-7-azaspiro[3.5]nonan-7-yl)-N-((4-((((1r,4r)-4-hydroxy-4-methylcyclohexyl)methyl)amino)-3-nitrophenyl)sulfonyl)benzamide], the IC50 amounted to 3 nM in test [1]; 0.8 nM in test [3]; 10.4 nM in test [4]; 0.73 nM in test [5] (setting [7]); 0.73 nM in test [5] (setting [8]); 3.2 nM in test [6]. Also, the “Ratio of Bcl-2 G101V/WT” value in test [2] is 4.1. For the same molecule, in test [6], the “ratio of Bcl-2 D103Y/Bcl-2 wt, compared with F91b in WO2019210828” value is on record as “significantly lower”. The “Ratio of Bcl-2 D103Y/Bcl-2 WT” value in test [6] is listed as 4.4.

Take `CC(C)c1ccccc1C1CC(Oc2ccccc2)CCN1C1CC2(CCN(c3ccc(C(=O)NS(=O)(=O)c4ccc(NC[C@H]5CC[C@](C)(O)CC5)c([N+](=O)[O-])c4)c(Oc4cnc5[nH]ccc5c4)c3)CC2)C1` (some centres unmarked) [Example 68, 2-((1H-pyrrolo[2,3-b]pyridin-5-yl)oxy)-N-((4-((((1r,4r)-4-hydroxy-4-methylcyclohexyl)methyl)amino)-3-nitrophenyl)sulfonyl)-4-(2-(2-(2-isopropylphenyl)-4-phenoxypiperidin-1-yl)-7-azaspiro [3.5]nonan-7-yl)benzamide]: the IC50 in test [1] is 0.81 nM; in test [3], 0.47 nM; in test [4] it was 4.7 nM; in test [5] (setting [7]), 0.2 nM; in test [5] (setting [8]), 0.2 nM; in test [6], 0.87 nM. Further, the “Ratio of Bcl-2 G101V/WT” value in test [2] is listed as 4. Besides, the “ratio of Bcl-2 D103Y/Bcl-2 wt, compared with F91b in WO2019210828” value in test [6] is “significantly lower”. In addition, the “Ratio of Bcl-2 D103Y/Bcl-2 WT” value in test [6] was found to be 4.3.

For the molecule `CC(C)c1ccccc1C1CN(Cc2cnn(C3CC3)c2)CCN1C1CC2(CCN(c3ccc(C(=O)NS(=O)(=O)c4ccc(NC[C@H]5CC[C@](C)(O)CC5)c([N+](=O)[O-])c4)c(Oc4cnc5[nH]ccc5c4)c3)CC2)C1` (some centres unmarked) [Example 70, 2-((1H-pyrrolo[2,3-b]pyridin-5-yl)oxy)-4-(2-(4-((1-cyclopropyl-1H-pyrazol-4-yl)methyl)-2-(2-isopropylphenyl)piperazin-1-yl)-7-azaspiro[3.5]nonan-7-yl)-N-((4-((((1r,4r)-4-hydroxy-4-methylcyclohexyl)methyl)amino)-3-nitrophenyl)sulfonyl)benzamide], the IC50 in test [1] is 0.13 nM; in test [3] it was 0.38 nM; in test [4] it was 1.5 nM; in test [5] (setting [7]), 0.014 nM; in test [5] (setting [8]), 0.014 nM; in test [6] it was 0.1 nM. Besides, in test [2], the “Ratio of Bcl-2 G101V/WT” value was 9. Moreover, the “Ratio of Bcl-2 D103Y/Bcl-2 WT” value in test [6] was 7.1.

(Values after patent US20240376097A1, “BCL-2 Inhibitor” (BeiGene Ltd., priority 2020, published 2024).)
